Laboratory results reported in patent US20010056085A1, “Methods of using vesicant drug formulations” (priority 1996, published 2001).
Where two headings read alike, the source gives them in different places.

Assay: Half-life of ADR destruction by UVA light in the presence of test compounds (decrease in absorbance at 480 nm)
Assay type: physicochemical
[1] = UVA light, 100 μM test compound with 0.5 μM riboflavin
[2] = UVA light, 100 μM test compound alone
[3] = UVA light, with 0.5 μM riboflavin, +4% DMSO

SMILES | Half-Life of ADR Destruction, 100 μM Test Compound and 0.5 μM Riboflavin [1] [min] | Half-Life of ADR Destruction, 100 μM Test Compound [2] [min] | also measured
Nc1ccc2cc(S(=O)(=O)O)cc(O)c2c1 [6-Amino-4-hydroxy-2-naphthalenesulfonic acid] | 50.2 | – | –
Cn1ccc2ccccc21 [1-methyl Indole] | 33.5 | – | –
Cc1ccc2[nH]ccc2c1 [5-Methyl Indole] | 8.85 | – | –
Nc1ccc(C(=O)c2ccccc2)cc1 [4-Aminobenzophenone] | 21.5 | – | –
O=C(O)c1ccc2[nH]ccc2c1 [Indole-5-carboxylic acid] | 12.0 | – | –
CC(=O)c1c[nH]c2ccccc12 [3-Acetylindole] | 33.5 | – | –
NCc1ccc(N)cc1 [4-Amino Benzylamine] | 7.34 ± 1.13 | – | –
COc1ccc(C(=O)c2cccs2)cc1 [2-(4-Methoxybenzoyl)-thiophene] | 8.36 | 9.41 | –
COc1cccc(N)c1 [3-Methoxy Aniline] | 30.1 | – | –
COc1ccccc1CN [2-Methoxy Benzylamine] | 43.0 | – | –
CCc1c(C)c[nH]c1C [2,4-Dimethyl-3-ethyl Pyrrole] | 20.1 | – | –
OCc1cccc2ccccc12 [1-Naphthalenemethanol] | 50.2 | – | –
Nc1ccc2[nH]ccc2c1 [5-Amino Indole] | 100.3 | – | –
COc1ccc2[nH]cc(C[C@H](N)C(=O)O)c2c1 [5-Methoxy-tryptophan] | 21.5 | – | –
COc1ccc(CCCO)cc1 [3-(4-Methoxyphenyl)-1-Propanol] | 1.68 | 43.0 | –
O=C(O)Cc1c[nH]c2ccccc12 [Indole-3-acetic acid] | 3.75 ± 0.22 | 27.4 ± 14.1 | –
CN(C)c1ccc(C(=O)O)cc1 [4-(Dimethylamino) Benzoic Acid] | 75.3 | – | –
OCCc1ccsc1 [Thiophene-3-ethanol] | 50.2 | – | –
O=C(O)CCC(=O)c1ccc2ccccc2c1 [γ-Oxo-2-naphthalenebutyric acid] | 8.18 | 8.36 | –
N[C@@H](Cc1ccc2ccccc2c1)C(=O)O [3-(2-Naphthyl)alanine] | 27.4 | – | –
Cc1cc2ccccc2[nH]1 [2-Methyl Indole] | 7.00 | – | –
Cc1ccc(C(=O)O)cc1N [3-Amino-4-Methyl Benzoic Acid] | 13.7 | – | –

SMILES | Half-Life of ADR Destruction, 100 μM Test Compound and 0.5 μM Riboflavin [1] [min] | Half-Life of ADR Destruction, 100 μM Test Compound [2] [min] | also measured
O=C(O)CCOc1ccc(-c2ccccc2)cc1 [3-(4-Biphenylyloxy) Propionic Acid] | 43.0 | 43.0 | –
O=C(O)c1cccc2ccccc12 [Naphthalene-1-carboxylic acid] | 43.0 | 50.2 | –
Nc1cc([N+](=O)[O-])cc([N+](=O)[O-])c1 [3,5-Dinitro Aniline] | – | – | Half-Life of ADR Destruction, 100 μM Test Compound and 0.5 μM Riboflavin: 75.3 min
OCCc1c[nH]c2ccccc12 [3-Indoleethanol] | 8.14 | – | –
O=c1[nH]c(=O)c2[nH]c(=O)[nH]c2[nH]1 [Uric acid] | 21.5 | – | –
COc1ccc(CCO)cc1 [4-Methoxy Phenylethyl Alcohol] | 5.47 | 43.0 | –
CC(=O)c1ccc2[nH]c3ccccc3c2c1 [3-Acetylcarbazole] | – | – | Half-Life of ADR Destruction, 100 μM Test Compound (UVA light, test compound alone, +4% DMSO): 30.1 min; Half-Life of ADR Destruction, 100 μM Test Compound and 0.5 μM Riboflavin [3]: 23.2 min
CNc1ccc(C(=O)O)cc1 [4-(Methylamino) Benzoic Acid] | 75.3 | – | –
O=C(O)c1cc2ccccc2o1 [2-Benzofurancarboxylic acid] | 50.2 | – | –
O=C(O)c1ccc[nH]1 [Pyrrole-2-carboxylic acid] | 23.2 | – | –
COc1ccccc1O [2-Methoxy Phenol] | 50.2 | 50.2 | –
O=C(O)c1ccccc1C(=O)c1ccccc1 [2-Benzophenone-carboxylic acid] | – | – | Half-Life of ADR Destruction, 100 μM Test Compound: 50.2 min
Nc1ccccc1C(=O)CC(N)C(=O)O (stereo not drawn) [Kynurenine] | 75.3 | – | –
N[C@@H](Cc1cccc(O)c1)C(=O)O [3-Hydroxy Phenylalanine] | 34.2 ± 5.9 | – | –
O=c1[nH]cnc2nc[nH]c12 [Hypoxanthine] | 43.0 | – | –
Cc1ccc(C)[nH]1 [2,5-Dimethyl Pyrrole] | 9.12 | – | –
COc1ccc2c(CC(=O)O)cc(=O)oc2c1 [7-Methoxycoumarin-4-acetic acid] | 11.6 | 14.3 | –
O=C(O)CCC(=O)c1cccc2ccccc12 [γ-Oxo-1-napthalenebutyric acid] | 8.60 | 10.0 | –
Oc1ccc2c(c1)[nH]c1ccccc12 [2-Hydroxy Carbazole] | – | – | Half-Life of ADR Destruction, 100 μM Test Compound and 0.5 μM Riboflavin [3]: 75.3 ± 35.4 min
O=C(O)CCc1ccc(O)c(O)c1 [3-(3,4-Dihydroxyphenyl) Propionic Acid] | – | 75.3 | –
N[C@@H](CSSC[C@H](N)C(=O)O)C(=O)O [Cystine] | 150.5 | – | –
Cc1cc2nc3[nH]c(=O)[nH]c(=O)c3nc2cc1C [Lumichrome] | – | – | Half-Life of ADR Destruction, 100 μM Test Compound: 6.02 min; Half-Life of ADR Destruction, 100 μM Test Compound and 0.5 μM Riboflavin: 3.86 min

SMILES | Half-Life of ADR Destruction, 100 μM Test Compound and 0.5 μM Riboflavin [1] [min] | Half-Life of ADR Destruction, 100 μM Test Compound [2] [min] | also measured
O=C(Oc1ccc2[nH]ccc2c1)c1ccccc1 [5-Benzoyloxy Indole] | 43.0 | – | –
COc1ccc2cc(C(=O)CCC(=O)O)c(OC)cc2c1 [3,6-Dimethoxy-γ-oxo-2-naphthalenebutyric acid] | 3.86 | 30.1 | –
COc1cc(C=CC=O)ccc1O [3-Methoxy-4-Hydroxy Cinnamaldehyde] | 50.2 | – | –
COc1ccccc1C(C)CO (stereo not drawn) [2-Methoxy-β-Methyl-Phenylethyl Alcohol] | 8.14 | 43.0 | –
OCCOc1ccc2ccccc2c1 [2-(2-naphthyloxy) Ethanol] | 2.95 | 30.1 | –
CN(C)c1ccc(CC(=O)O)cc1 [4-(Dimethylamino) Phenylacetic acid] | 100.3 | – | –
Nc1ccc(C(=O)c2cccc(N)c2)cc1 [3,4′-Diamino-benzophenone] | 15.8 | – | –
Nc1c(-c2ccccc2)cc(-c2ccccc2)cc1-c1ccccc1 [2,4,6-Triphenylaniline] | 33.5 | – | –
O=C(c1ccccc1)c1cccs1 [2-Benzoylthiophene] | 8.85 | 9.41 | –
Nc1cc[nH]c(=O)n1 [Cytosine] | 43.0 | 50.2 | –
O=c1nc2[nH]c3ccccc3nc-2c(=O)[nH]1 [Alloxazine] | 1.89 | 2.21 | –
O=C1c2cccc(S(=O)(=O)O)c2C(=O)c2cccc(S(=O)(=O)O)c21 [Anthraquinone-1,5-disulfonic acid] | 23.2 | 30.1 | –
Nc1cc(N)cc(C(=O)O)c1 [3,5-Diamino Benzoic Acid] | 75.3 | – | –
COc1[nH]c2ccccc2c1CN(C)C [2-Methoxy-3-(dimethylaminomethyl) indole] | 13.7 | 75.3 | –
CCC(=O)c1ccccc1 [Propriophenone] | – | – | Half-Life of ADR Destruction, 100 μM Test Compound: 43.0 min
C=C1C[C@]23C[C@@]1(O)CC[C@H]2[C@@]12C=C[C@H](O)[C@@](C)(C(=O)O1)[C@H]2[C@@H]3C(=O)O [Gibberellic acid] | – | 43.0 | –
COc1ccc(C=CCO)cc1O [3-Hydroxy-4-Methoxy Cinnamyl Alcohol] | 50.2 | 50.2 | –
COc1cc2ccc(=O)oc2cc1O [7-Hydroxy-6-methoxycoumarin] | 33.5 | 33.5 | –
CCc1cccc(N)c1 [3-Ethyl Aniline] | 20.1 | – | –
c1cc2c([nH]1)CCCC2 [4,5,6,7-tetrahydroindole] | 14.3 | – | –
Nc1ccccc1CCO [2-Amino Phenylethyl Alcohol] | 13.7 | – | –
